Entries after “also recorded” stand apart in the source; their conditions may differ. Non-standard residues stand in square brackets, D forms with d. No end group written: not given here. pS = N[C@@H](COP(=O)(O)O)C(=O)O

Test [1] addresses BRCA1 C-terminal tandem BRCT domains (UniProt P38398). Kind of test: fluorescence polarisation titration. To be noted: reference: pS2265 peptide, untreated; sites S2265.
In a further test the test system is BRCA1 nuclear signal. Kind of test: BRCA1 nuclear immunofluorescence intensity, HeLa cells. The format is cell-based, human. The protocol: Cells were grown on glass coverslips and treated as desired. Cells were then permeabilized with 0.5% TritonX-100 in PBS for 7 min on ice, and fixed with 4% w/v formaldehyde solution (Sigma HT5012) for 10 min at room temperature (RT). After fixation, coverslips were blocked with 3% BSA in PBS (RT, 1 h), incubated with primary antibodies (RT, 2 h), washed with PBS three times and incubated with secondary antibodies (RT, 1 h). Primary antibodies used for immunofluorescence include anti-γH2A.X (20E3) (Cell Signalling Technology, 9718. 1:500); anti-RPA32/RPA2 (9H8) (Abcam, ab2175. 1:200); anti-RAD51 (H92) (Santa Cruz Biotechnology, sc-8349. 1:100); anti-BrdU (B44) (BD Biosciences, 347580. 1:100); Coverslips were then mounted on glass slides with mounting medium with DAPI. Images were captured by either standard (Zeiss Axio Imager) or confocal (Zeiss LSM-880) microscopy. Fluorescence signal intensities within each nucleus were analysed by CellProfiler software with custom-made pipelines. […]
For proximity ligation assays and immunofluorescence signal intensity measurements, when comparing between two samples, statistical significance of differences was calculated by Mann-Whitney test for non-parametric distributions using GraphPad Prism software (v.9). When comparing among three or more samples, p values were calculated by Kruskal-Wallis test for non-parametric distributions with Dunn’s multiple comparisons using GraphPad Prism software (v.9). For RIF1 foci formation analysis (Fig. 6B), p values were calculated by two-tailed Student’s t test. For nuclear BRCA1 intensity fold change analyses (Fig. 6C, D), p values were calculated by two-tailed one-sample t test using GraphPad Prism software (v.9). For RAD51 foci formation analyses (Fig. 7B, E and Supplementary Fig. 7B), p values were calculated by chi-square test. For HR Reporter assay analysis (Fig. 7G and Supplementary Fig. 7L), p values were calculated by two-tailed paired Student’s t test. For micronuclei frequency analysis (Fig. 7H), p values were calculated by one-tailed paired Student’s t test. […]

The next test deals with micronuclei. Kind of test: micronuclei frequency, HeLa cells. The format is cell-based, human. The conditions noted are these: Fig.7H. The protocol: (§1) For proximity ligation assays and immunofluorescence signal intensity measurements, when comparing between two samples, statistical significance of differences was calculated by Mann-Whitney test for non-parametric distributions using GraphPad Prism software (v.9). When comparing among three or more samples, p values were calculated by Kruskal-Wallis test for non-parametric distributions with Dunn’s multiple comparisons using GraphPad Prism software (v.9). For RIF1 foci formation analysis (Fig. 6B), p values were calculated by two-tailed Student’s t test. For nuclear BRCA1 intensity fold change analyses (Fig. 6C, D), p values were calculated by two-tailed one-sample t test using GraphPad Prism software (v.9). For RAD51 foci formation analyses (Fig. 7B, E and Supplementary Fig. 7B), p values were calculated by chi-square test. For HR Reporter assay analysis (Fig. 7G and Supplementary Fig. 7L), p values were calculated by two-tailed paired Student’s t test. For micronuclei frequency analysis (Fig. 7H), p values were calculated by one-tailed paired Student’s t test. All Student’s t tests were performed with Excel T.TEST function. Chi-square tests were performed with the online Chi-square test calculator at https://www.socscistatistics.com/tests/chisquare2/default2.aspx. Sample number n for all box-and-whisker plots and dot plots are listed in Supplementary Data 1.

For a further test, the system named is RIF1-L phosphoS2265. Briefly: Western blot, RIF1-L phosphoS2265, HeLa cells. It is filed as cell-based, human. The protocol: Cells were harvested in 10 mM Tris-HCl pH 7.5, 2 mM EDTA buffer and lysed with laemmli sample buffer (Bio-Rad, 1610737, supplemented with 5% β-mercaptoethanol). Samples were heated at 95 °C for 15 min and centrifuged at 13,000 × g for 15 min. Protein concentrations were measured by RC DC Protein Assay (Bio-Rad, 5000122). Equal amounts of total proteins for each sample were separated in Mini-PROTEAN TGX Stain-free Precast Gels (Bio-Rad) by SDS-PAGE. Gels were at this stage imaged with the ChemiDoc Touch Imaging System (Bio-Rad) using the ‘Protein gel – Stain free’ module to obtain stain-free gel images. Proteins on gel were transferred to PVDF membranes (Bio-Rad, 1704274) using the Trans-Blot Turbo Blotting System (Bio-Rad). Membranes were blocked in 3% BSA in TBS-T (1x TBS supplemented with 0.1% Tween-20) at RT for 1 h, followed by incubation with primary antibodies overnight at 4 °C. Membranes were washed with TBS-T and then incubated with secondary antibodies for 1 h at RT. The blots were developed with Clarity ECL reagents (Bio-Rad, 1705060) and imaged with the ChemiDoc Touch Imaging System (Bio-Rad). Primary antibodies used for western blotting include anti-RIF1 (Bethyl Laboratories, A300-568A. 1:5000); anti-RIF1-L-Phospho-S2265 (amsbio, custom. 1:5000); anti-BRCA1 (D-9) (Santa Cruz Biotechnology, sc-6954. 1:1000); anti-BARD1 (Bethyl Laboratories, A300-263A. 1:1000); anti-53BP1 (Novus Biologicals, NB100-94. 1:5000); anti-PP1α (G4) (Santa Cruz Biotechnology, sc-271762. 1:1000); anti-Tubulin (YOL1/34) (Santa Cruz Biotechnology, sc-53030. 1:4000); anti-FLAG (M2) (Sigma-Aldrich, F1804. 1:2000); anti-GFP (Chromotek, 3h9. 1:2000); anti-RFP (Chromotek, 5f8. 1:2000). Uncropped and unprocessed Western Blot images are provided in the Source Data file.

For test [2], the system named is RIF1-BRCA1 proximity in RPE-1 cells. Briefly: RIF1-BRCA1 proximity ligation assay, RPE-1 cells. It is filed as cell-based, human. The protocol:
(§2) Proximity ligation assays were performed using the Duolink In Situ PLA Fluorescence Protocol (Sigma-Aldrich, DUO92101) following the manufacturer’s instruction. Cells were grown on glass coverslips and treated as indicated for specific experiments. Cells were then permeabilized with 0.5% TritonX-100 in PBS for 10 min on ice, and fixed with 3% formaldehyde, 2% sucrose in PBS for 10 min at room temperature (RT). After fixation, coverslips were blocked in 3% BSA in PBS for 1 h at RT and incubated with primary antibodies (anti-RIF1, Bethel laboratories A300-568A, 1:1000 dilution; anti-BRCA1, Santa Cruz Biotechnologies, sc-6954, 1:200 dilution), for 1 h at RT in a humidity chamber. Primary antibodies were then washed off with PLA washing buffer A supplied in the Duolink In Situ PLA kit. Coverslips were next incubated sequentially with PLA Probes (1 h at 37 °C), ligation solution (30 min at 37 °C) and amplification solution (100 min at 37 °C), with washes by washing buffer A in between each step. At the end of incubation, coverslips were washed with washing buffer B supplied in the Duolink In Situ PLA kit. Coverslips were then mounted on glass slides with PLA Mounting medium with DAPI. Images were captured by fluorescence microscopy (Zeiss Axio Imager). PLA foci number in each nucleus were analysed by CellProfiler Software[74] with a custom-made pipeline.
For EdU labelling combined with proximity ligation assay, cells were labelled with 10 µM EdU for 15 min, washed free of EdU and next incubated with medium containing 4 mM HU medium for 4 h. Cells were then permeabilized, fixed and subjected to RIF1-BRCA1 PLA procedures. After all PLA steps, EdU detection was performed following manufacturer’s instructions in the Click-iT EdU Imaging Kit (Invitrogen, C10640).
as §1

For test [3], the system named is RIF1-BRCA1 proximity in HeLa cells. Kind of test: RIF1-BRCA1 proximity ligation assay, HeLa cells. The format is cell-based, human. To be noted: HeLa +RIF1-L. The protocol: as §2, §1
Another test has as its system HCT116 cells. Kind of test: colony formation (clonogenic survival) assay, HCT116 cells. The format is cell-based, human. The protocol: For HCT116-derived cells, cells were plated in 6-well plates at 250 cells/well, in triplicate for each drug concentration. Cells were incubated with drugs for 24 h, after which drug-containing medium was replaced with drug-free medium. Seven days later colony counting was performed using a Nikon Eclipse TS100 microscope. For the IR sensitivity test, cells were plated following the same procedure, then irradiated at desired doses and incubated for 7 days before colony counting. Clusters with more than 20 cells were counted as colonies. Mean and standard error of each triplicate was calculated.

A further test deals with BRCA1-BRCT domain. Kind of test: X-ray crystal structure of peptide with BRCA1-BRCT (PDB 8RS8). The format is binding, human. The protocol:
For crystallographic studies, the N-terminal HIS-SUMO tag was removed from the His6-SUMO-BRCA1-BRCT2 by incubation with GST-3C protease (in house) for 12 h at 4 °C. A Superdex 75 16/60 size exclusion column (GE Healthcare) was used to purify the BRCT2 domains to homogeneity in 10 mM HEPES pH 7.5, 200 mM NaCl, 0.5 mM TCEP.
An unlabelled RIF1 pS2265 peptide (SPGSR(pS)PKFKS) (Peptide Protein Research Ltd, Bishops Waltham, UK) was mixed with the pure BRCA1-BRCT2 domains at a five molar excess prior to concentration to 15 mg/ml for use in crystallisation trials. Crystals grew in condition MORPHEUS E2 (55.5 mM MES, 44.5 mM Imidazole, 120 mM Diethylene glycol, 120 mM Triethylene-glycol, 120 mM Tetraethylene glycol, 120 mM Pentaethylene glycol, 20% (v/v) Ethylene glycol, 10% (w/v) PEG 8000) (Molecular Dimensions) and were looped before flash freezing in liquid nitrogen. Data were collected on beamline I04-1 at the Diamond Synchrotron Lightsource and the structure was determined using PHASER[70] to perform molecular replacement with PDB 4IGK as a search model before refinement using the PHENIX software package. Figures were produced using PyMOL v2.2.2.

[4] abbreviates: ATRi (VE-821) 1 µM 24 h + HU 4 mM 24 h.
[5] abbreviates: Fig 4F, ATRi (VE-821) 1 µM 24 h + HU 4 mM 24 h.
[6] abbreviates: Fig S4G (repeat), ATRi (VE-821) 1µM + HU 4mM 24hr.
[7] abbreviates: Fig S4H, ATRi (VE-821) 1µM + HU 4mM 24hr.
Where [8] appears, read: Chk1i (PF-477736) 1 µM 24 h + HU 4 mM 24 h.
Where [9] appears, read: Fig 4F, Chk1i (PF-477736) 1 µM 24 h + HU 4 mM 24 h.
Where [10] appears, read: Fig S4G (repeat), Chk1i (PF-477736) 1µM + HU 4mM 24hr.

As to “RIF1-Long (RIF1-L) (from UniProt Q5UIP0) λ phosphatase treated peptide”, in test [1], the “binding against the reference” value is given as “lost”.

As for RIF1-L, the figures for the “BRCA1 nuclear signal mean intensity” value in the test with BRCA1 nuclear signal (Exp 1), in the test with BRCA1 nuclear signal (Exp 2) and in the test with BRCA1 nuclear signal (Exp 3) were 12.65, 11.6 and 10.09, respectively. The “Micronuclei per 100” value in the test with micronuclei (HU, experiment 14Apr2024) worked out at 7.605; in the test on micronuclei (HeLa RIF1 KO + GFP-RIF1 derivative cells, HU, experiment 07Jun2024), 5.84; in the test with micronuclei (HeLa RIF1 KO + GFP-RIF1 derivative cells, unt, experiment 07Jun2024) it was 3.60; in the test on micronuclei (unt, experiment 14Apr2024), 3.159.

As to `CS(=O)(=O)c1ccc(-c2cnc(N)c(C(=O)Nc3ccccc3)n2)cc1` [VE-821], the “HU-induced reduction of phosphoS2265 signal” value in the test with RIF1-L phosphoS2265 (setting [4]) is recorded as “reversed by simultaneous ATR inhibition”. Further, the “RIF1-BRCA1 proximity signal” value in test [2] (setting [4]) was “significantly lowered the RIF1-BRCA1 proximity signal”. The “RIF1-BRCA1 PLA foci per nucleus, mean” value worked out at 1.672 in test [2] (setting [5]), 1.661 in test [2] (setting [6]) and 13.09 in test [3] (setting [7]). Further, the entries for the “RIF1-BRCA1 PLA foci per nucleus, median” value in test [2] (setting [5]), in test [2] (setting [6]) and in test [3] (setting [7]) were 1, 1 and 12, respectively. Further, the “RIF1-BRCA1 PLA” value in test [3] (setting [4]) is listed as “also reduced RIF1-BRCA1 PLA”.

`C[C@@]1(CO)[C@H](O)CC[C@@]2(C)[C@H]1CC[C@H]1C[C@@H]3C[C@@]12CC[C@]3(O)CO` [APH, aphidicolin]: the “RIF1-BRCA1 PLA foci” value in test [2] (APH 4 µM 24 h) was “also induced PLA foci”. In test [2] (Fig 3C, APH 4 µM 24 h), the “RIF1-BRCA1 PLA foci per nucleus, mean” value stood at 1.540 and the “RIF1-BRCA1 PLA foci per nucleus, median” value was determined as 1. In the test on HCT116 cells (HCT116 expressing only RIF1-L, versus RIF1-WT), the “colony survival, RIF1-L cells” value is listed as “RIF1-L conferred resistance comparable to RIF1-WT”. The “colony survival, RIF1-S cells” value in the test with HCT116 cells (HCT116 expressing only RIF1-S, versus RIF1-KO) was “exhibited hypersensitivity to these drugs similar to RIF1-KO cells”.

Turning to “SPGSR[pS]PKFKS [RIF1-L phospho-peptide, unlabelled RIF1 pS2265 peptide used for crystallography]”, the “binding mode in crystal” value was “fits within the BRCT pocket of BRCA1 as expected; also recorded: positively charged amino acids K^2267 and K^2269 of RIF1-L lie adjacent to the negatively charged E^1698 BRCA1 residue” with BRCA1-BRCT domain (MORPHEUS E2); “found in the canonical phosphate binding pocket of the BRCA1 BRCTs” in the test on BRCA1-BRCT domain (MORPHEUS E2, listed as RIF1-L peptide).

For `Cn1cc(-c2[nH]c3cc(NC(=O)[C@H](N)C4CCCCC4)cc4c3c2C=NNC4=O)cn1` [PF-477736], in the test with RIF1-L phosphoS2265 (setting [8]), the “HU-induced reduction of phosphoS2265 signal” value was “partially reversed by Chk1 inhibition”. Moreover, the “RIF1-BRCA1 PLA foci formation” value in test [2] (setting [8]) is on record as “abolished PLA foci formation”. In addition, in test [2] (setting [9]), the “RIF1-BRCA1 PLA foci per nucleus, mean” value was determined as 0.156 and the “RIF1-BRCA1 PLA foci per nucleus, median” value came to 0. For the same compound, in test [2] (setting [10]), the “RIF1-BRCA1 PLA foci per nucleus, mean” value turned out to be 0.316 and the “RIF1-BRCA1 PLA foci per nucleus, median” value was found to be 0.

(Values after paper PMC12214830, “The human RIF1-Long isoform interacts with BRCA1 to promote recombinational fork repair under DNA replication stress” (Nature Communications, 2025).)
